# Legend:
# Test in all cases: Test C greenhouse herbicide test, pre- and postemergence
# Assay type in all cases: in vivo
# [1] = system: wheat (winter wheat, Triticum aestivum)
# Text: (§1) Seeds of plant species selected from blackgrass (Alopecurus myosuroides), ryegrass, Italian (Italian ryegrass, Lolium multiflorum), wheat (winter wheat, Triticum aestivum), galium (catchweed bedstraw, Galium aparine), corn (Zea mays), large crabgrass, large (large crabgrass, Digitaria sanguinalis), foxtail, giant (giant foxtail, Setaria faberii), johnsongrass (Sorghum halepense), lambsquarters (Chenopodium album), morningglory (Ipomoea coccinea), nutsedge, yellow (yellow nutsedge, Cyperus esculentus), pigweed (Amaranthus retroflexus), ragweed (common ragweed, Ambrosia elatior), soybean (Glycine max), barnyardgrass (Echinochloa crus-galli), oilseed rape (Brassica napus), waterhemp (common waterhemp, Amaranthus rudis), and velvetleaf (Abutilon theophrasti) were planted into a blend of loam soil and sand and treated preemergence with test chemicals formulated in a non-phytotoxic solvent mixture which included a surfactant.
# (§2) At the same time, plants selected from these crop and weed species and also chickweed (common chickweed, Stellaria media), kochia (Kochia scoparia), and oat, wild (wild oat, Avena fatua), were planted in pots containing Redi-Earth® planting medium (Scotts Company, 14111 Scottslawn Road, Marysville, Ohio 43041) comprising spaghnum peat moss, vermiculite, wetting agent and starter nutrients and treated with postemergence applications of test chemicals formulated in the same manner. Plants ranged in height from 2 to 18 cm (1- to 4-leaf stage) for postemergence treatments. Treated plants and controls were maintained in a greenhouse for 13 to 15 d, after which time all species were compared to controls and visually evaluated. Plant response ratings, summarized in Table C, are based on a scale of 0 to 100 where 0 is no effect and 100 is complete control. A dash (-) response means no test result.
# [2] = system: ragweed (common ragweed, Ambrosia elatior)
# Text: as §1, §2
# [3] = system: velvetleaf (Abutilon theophrasti)
# Text: as §1, §2
# soybean (Glycine max) = system: soybean (Glycine max)
# Text: as §1, §2
# [4] = system: nutsedge, yellow (yellow nutsedge, Cyperus esculentus)
# Text: as §1, §2
# [5] = system: foxtail, giant (giant foxtail, Setaria faberii)
# Text: as §1, §2
# [6] = system: barnyardgrass (Echinochloa crus-galli)
# Text: as §1, §2
# [7] = system: morningglory (Ipomoea coccinea)
# Text: as §1, §2
# [8] = system: lambsquarters (Chenopodium album)
# Text: as §1, §2
# [9] = system: galium (catchweed bedstraw, Galium aparine)
# Text: as §1, §2
# [10] = system: waterhemp (common waterhemp, Amaranthus rudis)
# Text: as §1, §2
# [11] = system: crabgrass, large (large crabgrass, Digitaria sanguinalis)
# Text: as §1, §2
# [12] = system: pigweed (Amaranthus retroflexus)
# Text: as §1, §2
# [13] = system: oilseed rape (Brassica napus)
# Text: as §1, §2
# [14] = system: johnsongrass (Sorghum halepense)
# Text: as §1, §2
# [15] = system: blackgrass (Alopecurus myosuroides)
# Text: as §1, §2
# [16] = Postemergence, 31 g ai/ha, 0 to 100 scale (0 no effect, 100 complete control)
# [17] = Postemergence, 125 g ai/ha, scale 0 to 100, 0 is no effect, 100 is complete control
# [18] = Postemergence, 250 g ai/ha, scale 0 to 100, 0 no effect, 100 complete control, 13 to 15 d
# [19] = Preemergence, 62 g ai/ha, scale 0 to 100, 0 is no effect, 100 is complete control
# [20] = Preemergence, 125 g ai/ha, scale 0 to 100, 0 is no effect, 100 is complete control
# [21] = Preemergence, 250 g ai/ha, scale 0 to 100 (0 no effect, 100 complete control)
# [22] = postemergence, 62 g ai/ha, scale 0 to 100, 0 no effect, 100 complete control
# [23] = Preemergence, 31 g ai/ha, scale 0 to 100, 0 is no effect, 100 is complete control
smiles,measurement,setting,value
CC(=O)Oc1c(C)nn(C)c(=O)c1-c1c(C)sc2c(C)cc(C)cc12 [Compound 27],Wheat plant response rating,[1]; [16],0
same,"Plant response rating, Wheat",[1]; [17],5
same,"Plant response rating, Wheat",[1]; [18],5
same,"Plant response rating, Wheat",[1]; [19],0
same,"Plant response rating, Wheat",[1]; [20],0
same,Wheat plant response rating,[1]; [21],10
same,Wheat plant response rating,[1]; [22],0
same,Ragweed plant response rating,[2]; [16],70
same,"Plant response rating, Ragweed",[2]; [17],85
same,"Plant response rating, Ragweed",[2]; [18],90
same,"Plant response rating, Ragweed",[2]; [23],80
same,"Plant response rating, Ragweed",[2]; [19],100
same,"Plant response rating, Ragweed",[2]; [20],100
same,Ragweed plant response rating,[2]; [21],95
same,Ragweed plant response rating,[2]; [22],75
same,Velvetleaf plant response rating,[3]; [16],80
same,"Plant response rating, Velvetleaf",[3]; [17],90
same,"Plant response rating, Velvetleaf",[3]; [18],95
same,"Plant response rating, Velvetleaf",[3]; [19],85
same,"Plant response rating, Velvetleaf",[3]; [20],85
same,Velvetleaf plant response rating,[3]; [21],98
same,Velvetleaf plant response rating,[3]; [22],85
same,Soybean plant response rating,soybean (Glycine max); [16],0
same,"Plant response rating, Soybean",soybean (Glycine max); [17],0
same,"Plant response rating, Soybean",soybean (Glycine max); [18],0
same,"Plant response rating, Soybean",soybean (Glycine max); [19],0
same,"Plant response rating, Soybean",soybean (Glycine max); [20],10
same,Soybean plant response rating,soybean (Glycine max); [21],0
same,Soybean plant response rating,soybean (Glycine max); [22],0
same,"Nutsedge, Yellow plant response rating",[4]; [16],85
same,"Plant response rating, Nutsedge, Yellow",[4]; [18],95
same,"Plant response rating, Nutsedge, Yellow",[4]; [23],70
same,"Plant response rating, Nutsedge, Yellow",[4]; [19],90
same,"Plant response rating, Nutsedge, Yellow",[4]; [20],90
same,"Nutsedge, Yellow plant response rating",[4]; [21],95
same,"Nutsedge, Yellow plant response rating",[4]; [22],80
same,"Foxtail, Giant plant response rating",[5]; [16],60
same,"Plant response rating, Foxtail, Giant",[5]; [17],90
same,"Plant response rating, Foxtail, Giant",[5]; [18],95
same,"Plant response rating, Foxtail, Giant",[5]; [23],100
same,"Plant response rating, Foxtail, Giant",[5]; [19],100
same,"Plant response rating, Foxtail, Giant",[5]; [20],100
same,"Foxtail, Giant plant response rating",[5]; [21],100
same,"Foxtail, Giant plant response rating",[5]; [22],75
same,Barnyardgrass plant response rating,[6]; [16],15
same,"Plant response rating, Barnyardgrass",[6]; [17],25
same,"Plant response rating, Barnyardgrass",[6]; [18],50
same,"Plant response rating, Barnyardgrass",[6]; [23],55
same,"Plant response rating, Barnyardgrass",[6]; [19],80
same,"Plant response rating, Barnyardgrass",[6]; [20],90
same,Barnyardgrass plant response rating,[6]; [21],90
same,Barnyardgrass plant response rating,[6]; [22],20
same,Morningglory plant response rating,[7]; [16],100
same,"Plant response rating, Morningglory",[7]; [17],100
same,"Plant response rating, Morningglory",[7]; [18],100
same,"Plant response rating, Morningglory",[7]; [23],85
same,"Plant response rating, Morningglory",[7]; [19],98
same,"Plant response rating, Morningglory",[7]; [20],100
same,Morningglory plant response rating,[7]; [21],100
same,Morningglory plant response rating,[7]; [22],100
same,Lambsquarters plant response rating,[8]; [16],85
same,"Plant response rating, Lambsquarters",[8]; [17],90
same,"Plant response rating, Lambsquarters",[8]; [18],98
same,"Plant response rating, Lambsquarters",[8]; [23],70
same,"Plant response rating, Lambsquarters",[8]; [19],95
same,"Plant response rating, Lambsquarters",[8]; [20],95
same,Lambsquarters plant response rating,[8]; [21],98
same,Lambsquarters plant response rating,[8]; [22],85
same,Galium plant response rating,[9]; [16],100
same,"Plant response rating, Galium",[9]; [17],100
same,"Plant response rating, Galium",[9]; [18],100
same,"Plant response rating, Galium",[9]; [23],90
same,"Plant response rating, Galium",[9]; [19],95
same,"Plant response rating, Galium",[9]; [20],95
same,Galium plant response rating,[9]; [21],95
same,Galium plant response rating,[9]; [22],100
same,Waterhemp plant response rating,[10]; [16],65
same,"Plant response rating, Waterhemp",[10]; [17],10
same,"Plant response rating, Waterhemp",[10]; [18],90
same,"Plant response rating, Waterhemp",[10]; [19],85
same,"Plant response rating, Waterhemp",[10]; [20],100
same,Waterhemp plant response rating,[10]; [21],100
same,Waterhemp plant response rating,[10]; [22],60
same,"Crabgrass, Large plant response rating",[11]; [16],5
same,"Plant response rating, Crabgrass, Large",[11]; [17],30
same,"Plant response rating, Crabgrass, Large",[11]; [18],45
same,"Plant response rating, Crabgrass, Large",[11]; [23],55
same,"Plant response rating, Crabgrass, Large",[11]; [19],80
same,"Plant response rating, Crabgrass, Large",[11]; [20],95
same,"Crabgrass, Large plant response rating",[11]; [21],98
same,"Crabgrass, Large plant response rating",[11]; [22],25
same,Pigweed plant response rating,[12]; [16],55
same,"Plant response rating, Pigweed",[12]; [17],85
same,"Plant response rating, Pigweed",[12]; [18],90
same,"Plant response rating, Pigweed",[12]; [23],98
same,"Plant response rating, Pigweed",[12]; [19],100
same,"Plant response rating, Pigweed",[12]; [20],98
same,Pigweed plant response rating,[12]; [21],100
same,Pigweed plant response rating,[12]; [22],80
same,Oilseed Rape plant response rating,[13]; [16],5
same,"Plant response rating, Oilseed Rape",[13]; [17],80
same,"Plant response rating, Oilseed Rape",[13]; [18],70
same,"Plant response rating, Oilseed Rape",[13]; [23],5
same,"Plant response rating, Oilseed Rape",[13]; [19],95
same,"Plant response rating, Oilseed Rape",[13]; [20],98
same,Oilseed Rape plant response rating,[13]; [21],98
same,Oilseed Rape plant response rating,[13]; [22],70
same,Johnsongrass plant response rating,[14]; [16],10
same,"Plant response rating, Johnsongrass",[14]; [18],10
same,"Plant response rating, Johnsongrass",[14]; [23],0
same,"Plant response rating, Johnsongrass",[14]; [19],5
same,"Plant response rating, Johnsongrass",[14]; [20],5
same,Johnsongrass plant response rating,[14]; [21],25
same,Johnsongrass plant response rating,[14]; [22],0
same,Blackgrass plant response rating,[15]; [16],50
same,"Plant response rating, Blackgrass",[15]; [17],85
same,"Plant response rating, Blackgrass",[15]; [18],90
same,"Plant response rating, Blackgrass",[15]; [23],85
same,"Plant response rating, Blackgrass",[15]; [19],90
same,"Plant response rating, Blackgrass",[15]; [20],90
same,Blackgrass plant response rating,[15]; [21],90
same,Blackgrass plant response rating,[15]; [22],70

# — patent US10597388B2, “Pyridazinone herbicides” (FMC CORPORATION, priority 2014, dated 2020)
